11 compounds from EP1421935A1 (Casini, Angela, priority 2002, dated 2004) can be followed below.

≈ marks a conversion by molar mass, not a printed value. Marks after values point to notes of the source that are not given here.

Data set [1] can be described thus: solubility in aqueous buffer (UV of saturated solution). To be noted: 25 °C, pH 7.4, aqueous buffer, thermodynamic from solid.
Description: The determination of solubility in aqueous buffer is performed as follows. […] The UV absorption maximum of each compound is determined (with a Cary 3 spectrophotometer) eventually diluting the solution (with MeOH) as necessary. […] The obtained saturated solution is filtered in order to remove solid compound through a Millipore 0.45 µm filter and scanned by UV at the wavelength of the absorption maximum previously determined. Total solubility is determined by the relationship: C' = A'C/A, where C = concentration of standard solution (mg/mL); A = absorbance of standard solution; A' = absorbance of the saturated solution; C' = concentration of the saturated solution (mg/mL).
The nature of data set [2]: chloroform-buffer partition coefficient. The format is physicochemical. Conditions: pH 7.4 phosphate buffer, B compounds as sodium salts.
Description: The determination of partition coefficient is performed as follows. Chloroform - buffer partition coefficients are obtained by equilibrating the test compound between chloroform and 0.1-ionic strength pH 7.4 phosphate buffer. The concentration in each phase is determined by UV spectrophotometry or HPLC.
A short description of data set [3]: transcorneal penetration of drugs (in vitro corneal permeability). To be noted: rate constant of transfer across excised rabbit cornea, pH 7.4; for kin x 10^3 (hr^-1) No epithelium: denuded epithelium; for kin x 10^3 (hr^-1) Cornea intact: intact epithelium.
Description: The determination of transcorneal penetration of drugs is performed as follows. […] Excised rabbit corneas with either intact or denuded epithelium are used in these experiments. The pH is 7.4 and exposed area is 1.2 cm^2. Concentrations of drug of 40 - 2000 µM are placed in the epithelial chamber and samples of fluid are collected from the endothelial chamber at different intervals, up to 4 hr.
The target in another data set is T1, bCA IV (Bos taurus, UniProt Q95323).
T1 sequence (Q95323 19-284): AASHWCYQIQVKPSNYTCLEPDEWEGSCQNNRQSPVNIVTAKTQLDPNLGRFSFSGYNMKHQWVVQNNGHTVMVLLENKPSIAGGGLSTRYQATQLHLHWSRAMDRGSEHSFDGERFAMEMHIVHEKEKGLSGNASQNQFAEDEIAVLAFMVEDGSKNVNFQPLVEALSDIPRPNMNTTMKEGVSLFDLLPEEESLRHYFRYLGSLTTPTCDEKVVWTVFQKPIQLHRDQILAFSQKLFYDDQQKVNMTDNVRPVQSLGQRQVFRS
Description: CA inhibition, esterase method (4-nitrophenylacetate hydrolysis).

The target of the next data set is hCA II (Homo sapiens, UniProt P00918). Described as above.
The target of a further data set is hCA I (Homo sapiens, UniProt P00915). Described as above.
The nature of data set [4]: drug distribution in ocular fluids and tissues after topical administration. It is filed as in vivo, albino rabbits. Conditions: mean ± standard deviation (n= 3).
The subject of data set [5] is IOP of normotensive rabbits. Briefly: tonometric measurement of IOP after topical administration. It is filed as in vivo, New Zealand albino rabbits. Conditions: for Δ IOP ± SE (mm Hg) 30 min: 30 min after one drop (50 µL) of 2% solution; for Δ IOP ± SE (mm Hg) 30 min / Δ IOP ± SE (mm Hg) 60 min / Δ IOP ± SE (mm Hg) 90 min: topical, IOP control eye - IOP treated eye (N = 3); for Δ IOP ± SE (mm Hg) 60 min: 60 min after one drop (50 µL) of 2% solution; for Δ IOP ± SE (mm Hg) 90 min: 90 min after one drop (50 µL) of 2% solution; for IOP returns to baseline values after ... from administration: topical 2% solution (Fig. 2). The protocol: Tonometric measurement of IOP are performed as follows.
Adult male New Zealand albino rabbits weighing 3-3.5 kg are used in the experiments. Three animals are used for each inhibitor studied. The experimental procedures conform to the Association for Research in Vision and Ophthalmology Resolution on the use of animals. The rabbits are kept in individual cages with food and water provided ad libitum and maintained on a 12 h light/dark cycle in a temperature controlled room, at 22-26 °C. Solutions and suspensions of inhibitors (2 %, by weight, as hydrochlorides, or sodium carboxylates) are made in distilled deionized water. The pH of these solutions is in the range of 5.5 - 7.4.
IOP is measured using a Digilab 30R pneumatonometer (BioRad, Cambridge, MA, USA) as described by Maren et al. (Maren et al., Exp. Eye Res. 55:73-79, 1992; Brechue et al., Invest. Ophthalmol. Vis. Sci. 34:2581-2587,1993). The pressure readings are matched with two-point standard pressure measurements at least twice each day using a Digilab Calibration verifier. All IOP measurements are done by the same investigator with the same tonometer. One drop of 0.2 % oxybuprocaine hydrochloride (novesine, Sandoz) diluted 1:1 with saline is instilled in each eye immediately before each set of pressure measurements. IOP is measured three times at each time interval, and the means reported. IOP is measured first immediately before drug administration, then at 30 min after the instillation of the pharmacological agent, and then each 30 minutes for a period of 4-6 hours. For all IOP experiments drug is administered to only one eye, leaving the contralateral eye as an untreated control. The ocular hypotensive activity is expressed as the average difference in IOP between the treated and control eye, in this way minimizing the diurnal, seasonal and inter-individual variations commonly observed in the rabbit (Id.). All data are expressed as mean ± SE. Ocular hypertension is elicited in the right eye of albino rabbits by the injection of α-chymotrypsin (from Sigma) as described by Sugrue et al. (Sugrue et al., Br. J. Pharmacol. 99:59-64, 1990). The IOP of operated animals is checked after approximately four weeks, and animals with an elevated pressure of 30-36 mm Hg are used at least one month after the injection of α-chymotrypsin.
In vivo IOP lowering experiments are done in normotensive and glaucomatous rabbits, with many of the new compounds reported here, due to their strong CA II and CA IV inhibitory properties, such as B7, B10-B13, B15, B18-B22, B25, B27, B28, B33, B37, and A40. […] Measurements are at 30, 60 and 90 min after administration Table 3.

Where [6] appears, read: 1h after corneal application of one drop (50 µL) of 2% solution.
The mark [7] stands for this setting: 2h after corneal application of one drop (50 µL) of 2% solution.

hCA I, sequence (P00915 whole entry): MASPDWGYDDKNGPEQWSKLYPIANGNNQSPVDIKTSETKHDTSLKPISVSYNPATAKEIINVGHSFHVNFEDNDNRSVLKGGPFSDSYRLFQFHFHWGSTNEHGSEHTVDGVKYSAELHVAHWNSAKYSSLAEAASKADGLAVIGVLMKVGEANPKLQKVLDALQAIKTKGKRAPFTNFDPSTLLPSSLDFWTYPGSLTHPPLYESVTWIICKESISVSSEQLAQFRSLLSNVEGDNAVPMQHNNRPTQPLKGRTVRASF
Description for bCA IV: (§1) Stock solutions of inhibitor (1 mM) are prepared in distilled-deionized water with 10-20% (v/v) DMSO (which is not inhibitory at these concentrations) and dilutions up to 0.01 nM are done thereafter with distilled-deionized water. Inhibitor and enzyme solutions are preincubated together for 10 min at room temperature prior to assay, in order to allow for the formation of the E-I complex.
Description for hCA II: as §1

With `NS(=O)(=O)c1ccc(CNC(=S)Nc2ccccc2C(=O)O)cc1` [B11], the concentration in solution in data set [1] (phosphate buffer) (solubility) was 41 mM (≈ 15 mg/mL). For the same compound, the “Log P” value in data set [2] stood at 1.238. Further, in data set [3], the “kin x 10^3 (hr^-1) No epithelium” value worked out at 8.3 hr^-1. Moreover, the “kin x 10^3 (hr^-1) Cornea intact” value in data set [3] was 2.9 hr^-1. The values for the inhibition constant Ki on bCA IV, on hCA II and on hCA I were 23 nM, 11 nM and 54 nM, respectively.
In data set [1] (phosphate buffer), `NS(=O)(=O)c1ccc(CNC(=S)Nc2cccc(C(=O)O)c2)cc1` [B12] had a solubility of 40 mM (≈ 14.6 mg/mL). In addition, the “Log P” value in data set [2] was determined as 1.313. Moreover, the “kin x 10^3 (hr^-1) No epithelium” value in data set [3] is reported as 8.7 hr^-1. For the same compound, the “kin x 10^3 (hr^-1) Cornea intact” value in data set [3] is recorded as 3.0 hr^-1. Moreover, the figures for the Ki at bCA IV, on hCA II and at hCA I were 29 nM, 10 nM and 38 nM, respectively.
Regarding `NS(=O)(=O)c1ccc(CNC(=S)Nc2ccc(C(=O)O)cc2)cc1` [B13], in data set [1] (phosphate buffer), the solubility is 46 mM (≈ 16.8 mg/mL). In addition, the “Log P” value in data set [2] came to 1.428. In data set [4] (setting [6]), the “Drug concentration (µM) Aqueous humor” value was determined as 204 ± 13 µM, the “Drug concentration (µM) Ciliary process” value is reported as 50 ± 7 µM and the “Drug concentration (µM) Cornea” value is 123 ± 9 µM. For the same compound, in data set [4] (setting [7]), the “Drug concentration (µM) Aqueous humor” value is reported as 62 ± 4 µM, the “Drug concentration (µM) Ciliary process” value came out at 23 ± 2 µM and the “Drug concentration (µM) Cornea” value turned out to be 76 ± 5 µM. In addition, in data set [3], the “kin x 10^3 (hr^-1) No epithelium” value stood at 9.1 hr^-1 and the “kin x 10^3 (hr^-1) Cornea intact” value is recorded as 3.3 hr^-1. At bCA IV, this compound showed a Ki of 21 nM. The compound also had a Ki at hCA II of 9 nM. Besides, the affinity at hCA I corresponds to a Ki of 47 nM. In data set [5], the “Δ IOP ± SE (mm Hg) 30 min” value came out at 1.2±0.15 mm Hg, the “Δ IOP ± SE (mm Hg) 60 min” value was determined as 7.0±0.15 mm Hg and the “Δ IOP ± SE (mm Hg) 90 min” value stood at 10.3±0.20 mm Hg.
In turn, `NS(=O)(=O)c1ccc(CNC(=S)NC(C(=O)O)c2ccccc2)cc1` (stereo not drawn) [B18] came in with a solubility in data set [1] (phosphate buffer) of 59 mM (≈ 22.4 mg/mL). Also, in data set [2], the “Log P” value was determined as 3.721. Besides, the “kin x 10^3 (hr^-1) No epithelium” value in data set [3] came to 12.0 hr^-1. In addition, the “kin x 10^3 (hr^-1) Cornea intact” value in data set [3] is on record as 5.6 hr^-1. Further, the results for the Ki at bCA IV, at hCA II and at hCA I were 12 nM, 5 nM and 40 nM, respectively.
`NS(=O)(=O)c1ccc(CNC(=S)NC(CO)C(=O)O)cc1` (stereo not drawn) [B19] came in with a solubility in data set [1] (phosphate buffer) of 70 mM (≈ 23.3 mg/mL). In data set [2], the “Log P” value was 1.662. In addition, the “kin x 10^3 (hr^-1) No epithelium” value in data set [3] was 8.5 hr^-1. Also, in data set [3], the “kin x 10^3 (hr^-1) Cornea intact” value stood at 3.3 hr^-1. The Ki on bCA IV is 9 nM; on hCA II, 2 nM; at hCA I, 23 nM. Further, the “IOP returns to baseline values after ... from administration” value in data set [5] fell in the range of 5 to 6 h.
In turn, `NS(=O)(=O)c1ccc(CNC(=S)NC(C(=O)O)C(O)c2ccccc2)cc1` (stereo not drawn) [B20] had a solubility in data set [1] (phosphate buffer) of 51 mM (≈ 20.9 mg/mL). For the same compound, in data set [2], the “Log P” value is reported as 2.518. In data set [4] (setting [6]), the “Drug concentration (µM) Aqueous humor” value was found to be 205 ± 12 µM, the “Drug concentration (µM) Ciliary process” value turned out to be 49 ± 5 µM and the “Drug concentration (µM) Cornea” value is given as 133 ± 10 µM. Besides, in data set [4] (setting [7]), the “Drug concentration (µM) Aqueous humor” value is 53 ± 5 µM, the “Drug concentration (µM) Ciliary process” value is given as 15 ± 1 µM and the “Drug concentration (µM) Cornea” value came to 70 ± 9 µM. In data set [3], the “kin x 10^3 (hr^-1) No epithelium” value is reported as 10.7 hr^-1 and the “kin x 10^3 (hr^-1) Cornea intact” value stood at 4.9 hr^-1. This compound gave a Ki at bCA IV of 7 nM. The compound further showed a Ki on hCA II of 1 nM. The compound also had a Ki on hCA I of 20 nM. Moreover, the “IOP returns to baseline values after ... from administration” value in data set [5] was 5 to 6 h.
The compound `NS(=O)(=O)c1ccc(CNC(=S)NC(CS)C(=O)O)cc1` (stereo not drawn) [B22] showed a solubility in data set [1] (phosphate buffer) of 65 mM (≈ 22.7 mg/mL). In addition, in data set [2], the “Log P” value was 0.124. For the same compound, in data set [3], the “kin x 10^3 (hr^-1) No epithelium” value came out at 0.9 hr^-1. For the same compound, the “kin x 10^3 (hr^-1) Cornea intact” value in data set [3] is listed as 0.4 hr^-1. Besides, the Ki was 8 nM on bCA IV, 3 nM at hCA II and 21 nM at hCA I.
Take `NS(=O)(=O)c1ccc(CNC(=S)NCCC(=O)NC(Cc2cnc[nH]2)C(=O)O)cc1` (stereo not drawn) [B40]: the solubility at 3 h in data set [1] was found to be 57 mM (≈ 25.9 mg/mL). For the same compound, in data set [2], the “Log P” value is recorded as 0.933. For the same compound, in data set [3], the “kin x 10^3 (hr^-1) No epithelium” value worked out at 5.9 hr^-1. Moreover, in data set [3], the “kin x 10^3 (hr^-1) Cornea intact” value worked out at 2.8 hr^-1. In addition, the Ki at bCA IV was 9 nM; at hCA II, 4 nM; on hCA I it was 22 nM.
In data set [1] (phosphate buffer), `CCN[C@H]1C[C@H](C)S(=O)(=O)c2sc(S(N)(=O)=O)cc21` [Dorzolamide, dorzolamide, reference compound] returned a solubility at 3 h of 60 mM (≈ 19.5 mg/mL). For the same compound, the “Log P” value in data set [2] was 2.0^e. For the same compound, in data set [3], the “kin x 10^3 (hr^-1) No epithelium” value was determined as 5.2 hr^-1 and the “kin x 10^3 (hr^-1) Cornea intact” value was 3.0 hr^-1. In data set [5], the “Δ IOP ± SE (mm Hg) 30 min” value is listed as 2.2±0.15 mm Hg, the “Δ IOP ± SE (mm Hg) 60 min” value is 4.1±0.15 mm Hg and the “Δ IOP ± SE (mm Hg) 90 min” value worked out at 2.7±0.10 mm Hg. Also, in data set [5] (listed as dorzolamide), the “Δ IOP ± SE (mm Hg) 30 min” value is 2.2 mm Hg and the “Δ IOP ± SE (mm Hg) 60 min” value stood at 4.1 mm Hg.
Compound `CCOc1ccc2nc(S(N)(=O)=O)sc2c1` [Ethoxzolamide, ethoxzolamide, reference compound] displayed a solubility at 3 h in data set [1] (phosphate buffer) of 0.04 mM (≈ 0.0103 mg/mL). Besides, the “Log P” value in data set [2] was 1.40.
As to `CC(=O)/N=c1/sc(S(N)(=O)=O)nn1C` [Methazolamide, methazolamide, reference compound], the “Log P” value in data set [2] is 0.06. Also, in data set [3], the “kin x 10^3 (hr^-1) No epithelium” value is 13 hr^-1 and the “kin x 10^3 (hr^-1) Cornea intact” value was determined as 1.90 hr^-1.

As a reminder, the solubility is the dissolved amount per volume that the medium holds. What is called Log P is the decadic logarithm of the partition coefficient of the neutral form, usually between octanol and water. The term Ki denotes the dissociation constant of the complex between target and ligand, obtained from inhibition or displacement.
